Consider four molecules from article PMC9420858, “Synthesis, bioactivity, and molecular docking of novel arylpiperazine derivatives as potential AR antagonists” (Frontiers in Chemistry, 2022).

Structures are written as SMILES. Like-named read-outs stand apart in the source and are kept apart here.

In one data set the target is T1, AR-LBD (GST) (Rattus norvegicus, UniProt P15207).
T1 sequence (P15207 651-882 limits assumed): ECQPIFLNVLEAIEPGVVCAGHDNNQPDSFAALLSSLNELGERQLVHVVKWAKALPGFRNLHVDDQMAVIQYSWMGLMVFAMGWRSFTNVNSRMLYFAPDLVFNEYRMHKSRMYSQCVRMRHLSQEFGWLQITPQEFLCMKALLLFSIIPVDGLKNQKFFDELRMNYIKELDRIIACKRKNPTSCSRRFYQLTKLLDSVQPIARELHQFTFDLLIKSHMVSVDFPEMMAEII
The data set can be described thus: AR binding, fluorescence polarization (PolarScreen AR Competitor Assay). (In fluorescence polarisation assays a small probe gives low polarisation when free and higher when bound to something large.)

Data set [1] relates to PC-3 cells. As to the kind of experiment: Antiproliferative activity, CCK-8 assay, PC-3 cells. The note with it: PC-3 human prostate cancer cell line, 24 h, mean ± SD of three experiments. Type of data set: cell-based. The method, then: (§1) The antiproliferative activity of compounds 5–26 was assessed using the CCK-8 assay ([Chen et al., 2016]; [Chen et al., 2017]; [Chen et al., 2018]; [Han et al., 2020]; [Guo et al., 2021]; [Hu et al., 2022]; [Zhou et al., 2022]). The 96-well plates (1×10^5 cells/mL) were seeded with cells in a medium, the plates were cultured at 37 °C for 24 h, then different concentrations of tested drugs were added, and the plates were cultured for 24 h. After 24 h, 10 μL of CCK-8 solution (5 mg/ml) was added to the wells, and the cells were cultured for 1 h at 37°C. Cell growth inhibition was performed by measuring the absorbance at 450 nm using a microplate reader, and the percentage of cell growth inhibition was then calculated for each tested drug.
(§2) Antiproliferative activity of the novel arylpiperazine derivatives was firstly evaluated against LNCaP cells using the CCK-8 assay. […] Naftopidil and finasteride ([Banday et al., 2014]) were used as control compounds. RWPE-1 cells were used to compare their toxicity. To clarify whether the antiproliferative activity was related to any interference with AR function, the AR antagonist effect was evaluated using the luciferase reporter gene assay. […] The AR luciferase assays were conducted under the co-treatment of 1 nM AR agonist R1881, and the antagonistic activity was measured by inhibiting the R1881-induced luciferase expression.
A general note: Tetrazolium dyes change colour on reduction, which living cells bring about.

In data set [2] the test system is LNCaP cells. The data set can be described thus: Antiproliferative activity, CCK-8 assay, LNCaP cells. Type of data set: cell-based. Particulars: 24 h, LNCaP human prostate cancer cell line, mean ± SD of three experiments. The method, then: as §1, §2
The test system of another data set is RWPE-1 cells. As to the kind of experiment: Cytotoxicity, CCK-8 assay, RWPE-1 normal prostate epithelial cells. Type of data set: cell-based. The note with it: RWPE-1 normal non-cancer human prostate epithelial cell line, 24 h, mean ± SD of three experiments. The method, then: as §1, §2
In data set [3] the test system is LNCaP cells. Particulars: printed without SD, ref Banday et al., 2014, read-out: LNCaP IC50 (control compound finasteride); cited from earlier work.
Data set [4] deals with PC-3 cells. Particulars: printed without SD, ref Banday et al., 2014, read-out: PC-3 IC50 (control compound finasteride); cited from earlier work.
[5] abbreviates: AR binding affinity IC50, fluorescence polarization.

Method for AR-LBD (GST): Briefly, titrations are performed between the tested compounds and the preformed Fluormone™AL Green and the AR-LBD (GST) complex. The tested mixture was allowed to equilibrate at room temperature in 384-well plates for 4 h. […] Data of the ligand binding assays were analyzed using Prism software (GraphPad Software, Inc.).

As a reminder, the melting point is the temperature, or range, at which the solid turns liquid. As usually defined, the IC50 is the point on the concentration scale where inhibition reaches its midpoint. On to `Clc1cccc(N2CCN(CCc3ccc(COc4ccc5c(c4)CCC5)cc3)CC2)c1Cl` [Compound 22, 1-(4-((2,3-dihydro-1H-inden-5-yloxy)methyl)phenethyl)-4-(2,3-dichlorophenyl)piperazine], for which the melting point was 77.2 to 78.4 °C. Further, the IC50 at AR-LBD (GST) was 2.47 ± 0.11 µM. At AR-LBD (GST) (setting [5]), this molecule returned a half-maximal inhibitory concentration (IC50) of less than 3 µM. For the same molecule, the IC50 with PC-3 cells [1] was 23.48 ± 0.23 µM. In the data set with LNCaP cells [2] (Homo sapiens, LNCaP), the IC50 is less than 10 µM. It took 6.32 ± 0.14 µM to reach half-maximal inhibition in the data set on LNCaP cells [2] (IC50). For the same molecule, the half-maximal inhibitory concentration (IC50) in the data set with RWPE-1 cells is greater than 50 µM.
Molecule `COc1ccccc1N1CCN(CCc2ccc(COc3ccc4c(c3)CCC4)cc2)CC1` [Compound 12, 1-(4-((2,3-dihydro-1H-inden-5-yloxy)methyl)phenethyl)-4-(2-methoxyphenyl)piperazine] gave a melting point of 77.3 to 78.5 °C. On AR-LBD (GST), this molecule yielded a 50% inhibitory concentration (IC50) of 2.53 ± 0.15 µM. At AR-LBD (GST) (setting [5]), this molecule displayed an IC50 of less than 3 µM. In the data set on PC-3 cells [1], this molecule showed a half-inhibitory concentration (IC50) of 25.62 ± 0.17 µM. For the same molecule, the 50% inhibitory concentration (IC50) in the data set with LNCaP cells [2] (Homo sapiens, LNCaP) is less than 10 µM. The IC50 with LNCaP cells [2] was 8.12 ± 0.11 µM. Further, the concentration for half-maximal inhibition (IC50) with RWPE-1 cells is greater than 50 µM.
Turning to `CC(C)(C)NC(=O)[C@H]1CC[C@H]2[C@@H]3CC[C@H]4NC(=O)C=C[C@]4(C)[C@H]3CC[C@]12C` [Finasteride], the IC50 with LNCaP cells [3] was 13.5 µM; in the data set on PC-3 cells [4], 17.8 µM.
`Cc1ccccc1N1CCN(CCc2ccc(COc3ccc4c(c3)CCC4)cc2)CC1` [Compound 8, 1-(4-((2,3-dihydro-1H-inden-5-yloxy)methyl)phenethyl)-4-o-tolylpiperazine]: the melting point lay within 62.3 to 63.1 °C. The IC50 at AR-LBD (GST) is 2.35 ± 0.09 µM. The same molecule returned a 50% inhibitory concentration (IC50) at AR-LBD (GST) (setting [5]) of less than 3 µM. In the data set with PC-3 cells [1], this molecule returned a concentration for half-maximal inhibition (IC50) greater than 50 µM. The molecule further displayed an IC50 in the data set on LNCaP cells [2] (Homo sapiens, LNCaP) of less than 10 µM. The IC50 in the data set with LNCaP cells [2] came out at 7.37 ± 0.15 µM. The same molecule had an IC50 in the data set on RWPE-1 cells greater than 50 µM.
